# Data from article PMC7878925, “Continuous stimulation of dual-function peptide PGLP-1-VP inhibits the morbidity and mortality of NOD mice through anti-inflammation and immunoregulation” (Scientific Reports, 2021).
# Where no end group is shown, it is not given here.
# Legend:
# DPP-IV = test: in vitro; conditions: human, isolated enzyme dpp iv
# Protocol: Stability test for DPP-IV in vitro was performed as previously described.
# human GLP-1R = human GLP-1R (Homo sapiens, UniProt P43220); test: cell-based
# Chain of human GLP-1R (P43220 24-463): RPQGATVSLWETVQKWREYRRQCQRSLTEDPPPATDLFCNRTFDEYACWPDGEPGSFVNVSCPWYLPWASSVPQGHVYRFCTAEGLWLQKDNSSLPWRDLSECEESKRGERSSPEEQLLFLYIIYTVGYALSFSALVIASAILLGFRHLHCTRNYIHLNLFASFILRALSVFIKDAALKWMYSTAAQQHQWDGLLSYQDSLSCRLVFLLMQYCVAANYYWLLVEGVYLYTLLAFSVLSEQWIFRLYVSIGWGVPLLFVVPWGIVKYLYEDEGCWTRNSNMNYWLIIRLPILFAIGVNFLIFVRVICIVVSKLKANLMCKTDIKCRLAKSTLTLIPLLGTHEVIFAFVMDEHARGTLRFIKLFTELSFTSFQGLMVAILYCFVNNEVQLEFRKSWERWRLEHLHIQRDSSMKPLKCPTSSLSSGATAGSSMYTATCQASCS
# Protocol: Human embryonic kidney (HEK-293) cells were obtained from ATCC and cultured in growing media (DMEM: 25 mM glucose, 10% FBS, 100 µg/mL penicillin and 100 µg/mL streptomycin).
# NOD mice = conditions: 210 nmol/kg s.c. twice weekly for 24 weeks
# Protocol: Female 4-week-old NOD mice were obtained from Beijing HFK Bioscience Co. Ltd. (Beijing, China). NOD mice were randomly divided into 4 groups: vehicle, PGLP-1, VP and PGLP-1-VP, and each group was subcutaneously injected twice weekly with placebo [Lipofundin[32] (B. Braun Melsungen AG, Melsungen, Germany)] or 210 nmol/kg of peptides for 24 weeks. Body weight and blood glucose were measured once every 2 weeks until the end of the observation period. NOD mice were considered diabetic when blood glucose concentrations exceeded 200 mg/dL for 2 consecutive measurements. The onset time and death time of diabetic mice were calculated. Indexes of dead mice were shown as the last blood glucose or weight data. Blood samples were collected retro-orbital and centrifuged, and then serum was collected. Serum C-peptide levels and transforming growth factor-β1 (TGF-β1) were measured by enzyme-linked immunosorbent kits (Jiancheng Bio-Engineering Institute Co., Ltd. Nanjing, China).
"remaining at 10 h, 10 µM (DPP-IV)",Molecule,EC50 (human GLP-1R),body weights compared to controls (NOD mice)
6.3%,"CC[C@H](C)[C@H](NC(=O)[C@H](Cc1ccccc1)NC(=O)[C@H](CCC(=O)O)NC(=O)[C@H](CCCCN)NC(=O)[C@H](C)NC(=O)[C@H](C)NC(=O)[C@H](CCC(N)=O)NC(=O)CNC(=O)[C@H](CCC(=O)O)NC(=O)[C@H](CC(C)C)NC(=O)[C@H](Cc1ccc(O)cc1)NC(=O)[C@H](CO)NC(=O)[C@H](CO)NC(=O)[C@@H](NC(=O)[C@H](CC(=O)O)NC(=O)[C@H](CO)NC(=O)[C@@H](NC(=O)[C@H](Cc1ccccc1)NC(=O)[C@@H](NC(=O)CNC(=O)[C@H](CCC(=O)O)NC(=O)[C@H](C)NC(=O)[C@@H](N)Cc1c[nH]cn1)[C@@H](C)O)[C@@H](C)O)C(C)C)C(=O)N[C@@H](C)C(=O)N[C@@H](Cc1c[nH]c2ccccc12)C(=O)N[C@@H](CC(C)C)C(=O)N[C@H](C(=O)N[C@@H](CCCCN)C(=O)NCC(=O)N[C@@H](CCCN=C(N)N)C(=O)NCC(=O)O)C(C)C [GLP-1, Glucagon-like peptide-1]",,
,HGEGTFTSDVSSYLEGQAAKEFIAWLVKGRGPGVLGGGCRCIPALDSLTPANED (cysteines drawn unpaired) [PGLP-1-VP],139 ± 37 nM,not affected
